Source: patent US9376418B2, “Substituted pyridine spleen tyrosine kinase (SYK) inhibitors” (Merck Sharp & Dohme Corp., priority 2012, dated 2016)

Target: T1, recombinant human GST-SYK (Homo sapiens, UniProt P43405)
T1 construct: purchased Carna Biosciences 08-176
Assay: Homogeneous Time-Resolved Fluorescence (HTRF) assay for the recombinant human Syk enzyme
Type: biochemical
Conditions: HTRF assay, recombinant human GST-SYK; IC50 given as class symbols; read-out: rhSYK Activity
Procedure, shortened: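 Enzyme […], pH 7.5 Tris/tween/DTT buffer; 10 min preincubation with compound, RT. Start: 250 nM biotin-peptide, 25 μM ATP, 5 mM Mg; 45′ RT. Stop/detect: 40 mM EDTA, Eu-anti-pTyr, SA-APC; read 30 min later.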

Row | Structure (SMILES) | IC50 [nM]
1 | Cc1cc(Nc2nccc(C(F)(F)F)n2)cc(-c2ccc(C3(O)COC(C)(C)OC3)nc2)c1 [Example 9.32, 2,2-dimethyl-5-[5-(3-methyl-5-{[4-(trifluoromethyl)pyrimidin-2-yl]amino}phenyl)pyridin-2-yl]-1,3-dioxan-5-ol] | 100 to 1000
2 | CCOC(=O)C1CCC(O)(c2ccc(-c3cc(C)cc(Nc4nccc(C)n4)c3)cn2)CC1(C)C (centres unmarked) [Example 9.40, ethyl 4-hydroxy-2,2-dimethyl-4-(5-{3-methyl-5-[(4-methylpyrimidin-2-yl)amino]phenyl}pyridin-2-yl)cyclohexanecarboxylate] | 100 to 1000
3 | COC(=O)C1CCC(O)(c2ccc(-c3cc(C)cc(Nc4nccc(C(F)(F)F)n4)c3)cn2)CC1(C)C (centres unmarked) [Example 9.41, methyl 4-hydroxy-2,2-dimethyl-4-[5-(3-methyl-5-{[4-(trifluoromethyl)pyrimidin-2-yl]amino}phenyl)pyridin-2-yl]cyclohexanecarboxylate] | 100 to 1000
4 | CCOC(=O)C1CCC(O)(c2ccc(-c3cc(C)cc(Nc4nccc(C(F)(F)F)n4)c3)cn2)CC1(C)C (centres unmarked) [Example 9.42, ethyl 4-hydroxy-2,2-dimethyl-4-[5-(3-methyl-5-{[4-(trifluoromethyl)pyrimidin-2-yl]amino}phenyl)pyridin-2-yl]cyclohexanecarboxylate] | 100 to 1000
5 | CC1(C)CC(O)(c2ccc(-c3cccc(Nc4nccc(C(F)(F)F)n4)c3)cn2)CCC1C(=O)O (centres unmarked) [Example 9.43, 4-hydroxy-2,2-dimethyl-4-[5-(3-{[4-(trifluoromethyl)pyrimidin-2-yl]amino}phenyl)pyridin-2-yl]cyclohexanecarboxylic acid] | < 100
6 | CCOC(=O)C1(C)CCC(O)(c2ccc(-c3cc(C)cc(Nc4nccc(C(F)(F)F)n4)c3)cn2)CC1 (centres unmarked) [Example 9.44, ethyl 4-hydroxy-1-methyl-4-[5-(3-methyl-5-{[4-(trifluoromethyl)pyrimidin-2-yl]amino}phenyl)pyridin-2-yl]cyclohexanecarboxylate] | 100 to 1000
7 | Cc1cc(Nc2nccc(C(F)(F)F)n2)cc(-c2ccc(C3(O)CCC(C(=O)O)C(C)(C)C3)nc2)c1 (centres unmarked) [Example 9.46, 4-hydroxy-2,2-dimethyl-4-[5-(3-methyl-5-{[4-(trifluoromethyl)pyrimidin-2-yl]amino}phenyl)pyridin-2-yl]cyclohexanecarboxylic acid] | < 100
8 | CCOC(=O)C1CCC(O)(c2ccc(-c3cc(C)cc(Nc4nccc(C(F)(F)F)n4)c3)cn2)C1(C)C (centres unmarked) [Example 9.47, ethyl 3-hydroxy-2,2-dimethyl-3-[5-(3-methyl-5-{[4-(trifluoromethyl)pyrimidin-2-yl]amino}phenyl)pyridin-2-yl]cyclopentanecarboxylate] | 1000 to 10000
9 | Cc1cc(Nc2nccc(C(F)(F)F)n2)cc(-c2ccc(C3(O)CCC(=O)CC3)nc2)c1 [Example 9.54, 4-hydroxy-4-[5-(3-methyl-5-{[4-(trifluoromethyl)pyrimidin-2-yl]amino}phenyl)pyridin-2-yl]cyclohexanone] | < 100
10 | Cc1cc(Nc2nccc(C(F)(F)F)n2)cc(-c2ccc(C3(O)COC3)nc2)c1 [Example 9.55, 3-[5-(3-methyl-5-{[4-(trifluoromethyl)pyrimidin-2-yl]amino}phenyl)pyridin-2-yl]oxetan-3-ol] | < 100
11 | Cc1cc(Nc2nccc(C(F)(F)F)n2)cc(-c2ccc(C(C)(O)CO)nc2)c1 (centres unmarked) [Example 9.56, 2-[5-(3-methyl-5-{[4-(trifluoromethyl)pyrimidin-2-yl]amino}phenyl)pyridin-2-yl]propane-1,2-diol] | < 100
12 | Cc1cc(Nc2nccc(C(F)(F)F)n2)cc(-c2ccc(C(C)(O)CO)nc2)c1 (centres unmarked) [Example 9.57, 2-[5-(3-methyl-5-{[4-(trifluoromethyl)pyrimidin-2-yl]amino}phenyl)pyridin-2-yl]propane-1,2-diol] | < 100
13 | Cc1cc(Nc2nccc(C(F)(F)F)n2)cc(-c2ccc([C@]3(O)CC[C@@H](O)CC3)nc2)c1 [Example 9.58, cis-1-[5-(3-methyl-5-{[4-(trifluoromethyl)pyrimidin-2-yl]amino}phenyl)pyridin-2-yl]cyclohexane-1,4-diol] | < 100
14 | Cc1cc(Nc2nccc(C(F)(F)F)n2)cc(-c2ccnc(C3(O)CCC3)c2)c1 [Example 9.60, 1-[4-(3-methyl-5-{[4-(trifluoromethyl)pyrimidin-2-yl]amino}phenyl)pyridin-2-yl]cyclobutanol] | < 100
15 | Cc1cc(Nc2nccc(C(F)(F)F)n2)cc(-c2ccnc(C(C)(C)O)c2)c1 [Example 9.61, 2-[4-(3-methyl-5-{[4-(trifluoromethyl)pyrimidin-2-yl]amino}phenyl)pyridin-2-yl]propan-2-ol] | < 100
16 | Cc1cc(Nc2nccc(C(F)(F)F)n2)cc(-c2ccnc(C3(O)COC(C)(C)OC3)c2)c1 [Example 9.62, 2,2-dimethyl-5-[4-(3-methyl-5-{[4-(trifluoromethyl)pyrimidin-2-yl]amino}phenyl)pyridin-2-yl]-1,3-dioxan-5-ol] | 100 to 1000
17 | Cc1cc(Nc2nccc(C(F)(F)F)n2)cc(-c2ccnc(C3(O)CCC4(CC3)OCCO4)c2)c1 [Example 9.63, 8-[4-(3-methyl-5-{[4-(trifluoromethyl)pyrimidin-2-yl]amino}phenyl)pyridin-2-yl]-1,4-dioxaspiro[4.5]decan-8-ol] | < 100
18 | Cc1cc(Nc2nccc(C(F)(F)F)n2)cc(-c2ccnc(C(C)(O)CO)c2)c1 (centres unmarked) [Example 9.64, 2-[4-(3-methyl-5-{[4-(trifluoromethyl)pyrimidin-2-yl]amino}phenyl)pyridine-2-yl]propane-1,2-diol] | < 100
19 | Cc1cc(Nc2nccc(C(F)(F)F)n2)cc(-c2ccnc(C(O)(CO)CO)c2)c1 [Example 9.65, 2-[4-(3-methyl-5-{[4-(trifluoromethyl)pyrimidin-2-yl]amino}phenyl)pyridine-2-yl]propane-1,2,3-triol] | < 100
20 | Cc1cc(Nc2nccc(C(F)(F)F)n2)cc(-c2cncc(C3(O)CCCC(C(=O)O)C3)c2)c1 (centres unmarked) [Example 9.66, 3-hydroxy-3-[5-(3-methyl-5-{[4-(trifluoromethyl)pyrimidin-2-yl]amino}phenyl)pyridin-3-yl]cyclohexanecarboxylic acid] | < 100
21 | Cc1cc(Nc2nccc(C(F)(F)F)n2)cc(-c2cncc(C3(O)CCC(C(=O)O)C3)c2)c1 (centres unmarked) [Example 9.67, 3-hydroxy-3-[5-(3-methyl-5-{[4-(trifluoromethyl)pyrimidin-2-yl]amino}phenyl)pyridin-3-yl]cyclopentanecarboxylic acid] | < 100
22 | Cc1cc(Nc2nccc(C(F)(F)F)n2)cc(-c2cncc(C(C)(O)CO)c2)c1 (centres unmarked) [Example 9.68, 2-[5-(3-methyl-5-{[4-(trifluoromethyl)pyrimidin-2-yl]amino}phenyl)pyridin-3-yl]propane-1,2-diol] | < 100

Now from value to compound:

Row | IC50 [nM] | Structure (SMILES)
23 | < 100 | Cc1cc(Nc2nccc(C)n2)cc(-c2ccc(C(C)(O)[C@H]3CC[C@H](C(=O)O)CC3)nc2)c1 (stereo partly drawn) [Example 9.23, trans-4-[1-hydroxy-1-(5-{3-methyl-5-[(4-methylpyrimidin-2-yl)amino]phenyl}pyridin-2-yl)ethyl]cyclohexanecarboxylic acid]
24 | < 100 | Cc1cc(Nc2nccc(C3CC3)n2)cc(-c2ccc(C(C)(O)[C@H]3CC[C@H](C(=O)O)CC3)nc2)c1 (stereo partly drawn) [Example 9.24, trans-4-[1-(5-{3-[(4-cyclopropylpyrimidin-2-yl)amino]-5-methylphenyl}pyridin-2-yl)-1-hydroxyethyl]cyclohexanecarboxylic acid]
25 | < 100 | COc1ccnc(Nc2cc(C)cc(-c3ccc(C(C)(O)[C@H]4CC[C@H](C(=O)O)CC4)nc3)c2)n1 (stereo partly drawn) [Example 9.25, trans-4-[1-hydroxy-1-(5-{3-[(4-methoxypyrimidin-2-yl)amino]-5-methylphenyl}pyridin-2-yl)ethyl]cyclohexanecarboxylic acid]
26 | < 100 | Cc1cc(Nc2nccc(C(F)(F)F)n2)cc(-c2ccc(C(O)(CO)CO)nc2)c1 [Example 9.33, 2-[5-(3-methyl-5-{[4-(trifluoromethyl)pyrimidin-2-yl]amino}phenyl)pyridin-2-yl]propane-1,2,3-triol]
27 | < 100 | Cc1cc(Nc2nccc(C(F)(F)F)n2)cc(-c2ccc([C@]3(O)CC[C@@H](C(=O)O)CC3)nc2)c1 [Example 9.34, cis-4-hydroxy-4-[5-(3-methyl-5-{[4-(trifluoromethyl)pyrimidin-2-yl]amino}phenyl)pyridin-2-yl]cyclohexanecarboxylic acid]
28 | < 100 | Cc1cc(Nc2nccc(C(F)(F)F)n2)cc(-c2ccc([C@]3(O)CC[C@H](C(=O)O)CC3)nc2)c1 [Example 9.35, trans 4-hydroxy-4-[5-(3-methyl-5-{[4-(trifluoromethyl)pyrimidin-2-yl]amino}phenyl)pyridin-2-yl]cyclohexanecarboxylic acid]
29 | < 100 | COc1ccnc(Nc2cc(C)cc(-c3ccc([C@]4(O)CC[C@H](C(=O)O)CC4)nc3)c2)n1 [Example 9.36, trans-4-hydroxy-4-(5-{3-[(4-methoxypyrimidin-2-yl)amino]-5-methylphenyl}pyridin-2-yl)cyclohexanecarboxylic acid]
30 | < 100 | Cc1cc(Nc2nccc(C)n2)cc(-c2ccc([C@]3(O)CC[C@@H](C(=O)O)CC3)nc2)c1 [Example 9.37, cis-4-hydroxy-4-(5-{3-methyl-5-[(4-methylpyrimidin-2-yl)amino]phenyl}pyridin-2-yl)cyclohexanecarboxylic acid]
31 | < 100 | Cc1cc(Nc2nccc(C)n2)cc(-c2ccc([C@]3(O)CC[C@H](C(=O)O)CC3)nc2)c1 [Example 9.38, trans-4-hydroxy-4-(5-{3-methyl-5-[(4-methylpyrimidin-2-yl)amino]phenyl}pyridin-2-yl)cyclohexanecarboxylic acid]
32 | < 100 | Cc1cc(Nc2nccc(C)n2)cc(-c2ccc(C3(O)CCC(C(=O)O)C(C)(C)C3)nc2)c1 (centres unmarked) [Example 9.39, 4-hydroxy-2,2-dimethyl-4-(5-{3-methyl-5-[(4-methylpyrimidin-2-yl)amino]phenyl}pyridin-2-yl)cyclohexanecarboxylic acid]
